Data set [1] in a line: AUC in Balb/c mouse at 10 mg/kg, po. It is filed as ADME, organism-based. To be noted: in vivo.
Data set [2] deals with T1, Nuclear receptor subfamily 1 group I member 2 (Homo sapiens, UniProt O75469).
T1 sequence (O75469 whole entry): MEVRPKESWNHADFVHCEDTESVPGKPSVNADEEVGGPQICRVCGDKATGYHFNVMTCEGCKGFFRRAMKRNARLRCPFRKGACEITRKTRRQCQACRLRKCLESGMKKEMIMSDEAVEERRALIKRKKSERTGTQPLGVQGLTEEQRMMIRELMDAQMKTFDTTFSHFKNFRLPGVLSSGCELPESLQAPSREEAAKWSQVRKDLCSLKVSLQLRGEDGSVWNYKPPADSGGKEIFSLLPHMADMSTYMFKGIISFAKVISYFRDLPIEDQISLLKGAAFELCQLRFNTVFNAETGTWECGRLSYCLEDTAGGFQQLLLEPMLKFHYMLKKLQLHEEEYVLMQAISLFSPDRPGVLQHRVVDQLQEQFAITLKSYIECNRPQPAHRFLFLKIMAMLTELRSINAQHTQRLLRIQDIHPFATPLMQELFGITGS
As to the kind of experiment: Transactivation of PXR (unknown origin) expressed in human HepG2 cells. Type of data set: cell-based.

Data set [3] can be described thus: Cmax in Balb/c mouse at 10 mg/kg, po. Type of data set: ADME, organism-based. Also noted: dose 10 mg/kg, route oral. Conditions: in vivo.
A short description of data set [4]: Stability in mouse liver microsomes assessed as parent compound remaining after 10 mins. It is filed as ADME, Microsome. Conditions: liver microsomes, read-out: Stability. For orientation: Liver microsomes are vesicles of endoplasmic reticulum, rich in cytochrome P450 enzymes.
Data set [5] has as its target T2, Oxysterols receptor LXR-alpha (Homo sapiens, UniProt Q13133).
T2 sequence (Q13133 whole entry): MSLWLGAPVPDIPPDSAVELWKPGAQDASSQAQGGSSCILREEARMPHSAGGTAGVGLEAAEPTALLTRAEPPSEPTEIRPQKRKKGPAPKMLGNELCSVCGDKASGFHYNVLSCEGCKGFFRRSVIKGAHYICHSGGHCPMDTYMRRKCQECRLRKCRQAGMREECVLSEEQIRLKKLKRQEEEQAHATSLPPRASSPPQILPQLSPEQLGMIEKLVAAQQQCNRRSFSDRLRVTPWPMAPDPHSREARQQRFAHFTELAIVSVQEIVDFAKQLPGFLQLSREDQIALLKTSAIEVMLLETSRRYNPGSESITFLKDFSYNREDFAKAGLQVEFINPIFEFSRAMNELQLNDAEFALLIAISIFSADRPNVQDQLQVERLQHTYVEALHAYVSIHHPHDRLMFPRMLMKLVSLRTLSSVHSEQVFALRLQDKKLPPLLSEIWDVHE
As to the kind of experiment: Transactivation of human GAL4-fused LXRalpha expressed in African green monkey CV1 cells. Type of data set: cell-based.

The next data set has as its target T3, Cytochrome P450 2B6 (Homo sapiens, UniProt P20813).
T3 sequence (P20813 whole entry): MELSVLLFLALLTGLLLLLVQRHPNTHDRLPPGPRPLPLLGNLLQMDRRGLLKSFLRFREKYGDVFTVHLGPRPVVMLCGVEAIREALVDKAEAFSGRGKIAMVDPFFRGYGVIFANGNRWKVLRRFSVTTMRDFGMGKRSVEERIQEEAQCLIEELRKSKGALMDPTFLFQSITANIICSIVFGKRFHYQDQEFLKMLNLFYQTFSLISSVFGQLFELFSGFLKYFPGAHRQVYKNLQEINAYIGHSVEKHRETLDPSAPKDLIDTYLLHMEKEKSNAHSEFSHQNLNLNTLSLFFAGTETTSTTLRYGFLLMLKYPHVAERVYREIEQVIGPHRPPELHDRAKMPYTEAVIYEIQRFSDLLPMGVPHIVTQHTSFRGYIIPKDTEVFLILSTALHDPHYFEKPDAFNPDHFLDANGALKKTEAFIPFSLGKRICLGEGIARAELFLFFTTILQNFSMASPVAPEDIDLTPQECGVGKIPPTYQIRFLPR
Kind of data set: Inhibition of CYP2B6 (unknown origin). Type of data set: ADME.

The target in a further data set is Cytochrome P450 2D6 (Homo sapiens, UniProt P10635). As to the kind of experiment: Inhibition of CYP2D6 (unknown origin). It is filed as ADME.
For data set [6], the target named is T4, Nuclear receptor ROR-beta (Homo sapiens, UniProt Q92753).
T4 sequence (Q92753 whole entry): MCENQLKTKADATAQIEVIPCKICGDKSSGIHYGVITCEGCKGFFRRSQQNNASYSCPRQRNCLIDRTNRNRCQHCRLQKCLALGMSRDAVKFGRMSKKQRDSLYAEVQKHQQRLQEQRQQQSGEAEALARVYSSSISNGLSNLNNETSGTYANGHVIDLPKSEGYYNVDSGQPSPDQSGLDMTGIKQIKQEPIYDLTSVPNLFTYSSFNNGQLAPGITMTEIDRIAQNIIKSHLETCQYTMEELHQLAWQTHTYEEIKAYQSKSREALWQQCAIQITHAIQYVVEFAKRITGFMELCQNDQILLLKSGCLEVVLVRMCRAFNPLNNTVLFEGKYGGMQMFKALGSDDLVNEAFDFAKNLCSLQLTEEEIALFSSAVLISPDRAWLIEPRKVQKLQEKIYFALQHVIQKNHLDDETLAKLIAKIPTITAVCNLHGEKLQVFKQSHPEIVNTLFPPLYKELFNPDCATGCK
As to the kind of experiment: Inverse agonist activity at human Gal4-fused RORbeta LBD (200 to 559 residues) expressed in human Jurkat cells measured after 18 hrs by steady-glo luciferase reporter gene assay. It is filed as cell-based. On the technique in general: In a reporter assay the amount or activity of a reporter protein is the signal.

A short description of data set [7]: Half life in mouse liver microsomes. Type of data set: ADME, Microsome.

Bounds are passed on as bounds.

Cytochrome P450 2D6, sequence (P10635 whole entry): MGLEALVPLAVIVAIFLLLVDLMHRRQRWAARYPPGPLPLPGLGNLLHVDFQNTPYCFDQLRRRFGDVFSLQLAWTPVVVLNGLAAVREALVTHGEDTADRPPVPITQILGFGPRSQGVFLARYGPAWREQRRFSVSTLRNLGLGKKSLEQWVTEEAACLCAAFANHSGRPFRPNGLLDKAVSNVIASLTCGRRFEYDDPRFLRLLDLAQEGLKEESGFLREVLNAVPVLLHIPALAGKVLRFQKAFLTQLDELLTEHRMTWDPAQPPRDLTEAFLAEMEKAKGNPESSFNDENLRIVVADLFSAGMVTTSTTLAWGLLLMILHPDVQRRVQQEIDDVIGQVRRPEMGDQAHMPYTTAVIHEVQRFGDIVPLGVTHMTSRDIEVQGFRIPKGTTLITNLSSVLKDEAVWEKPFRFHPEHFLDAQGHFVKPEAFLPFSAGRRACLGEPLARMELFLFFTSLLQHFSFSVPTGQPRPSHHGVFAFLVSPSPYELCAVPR

In general, AUC refers to the area under the concentration-time curve, a measure of exposure. Usually EC50 stands for the concentration at which the effect is half-maximal. In general, Cmax refers to the maximum level reached in the sampled fluid or tissue. One may read the IC50 as the point on the concentration scale where inhibition reaches its midpoint. What is called half-life is the time needed for the level to fall by half in the phase considered. With `CC[C@]1(C(=O)N2CC[C@](c3ccc(C(F)(C(F)(F)F)C(F)(F)F)cc3)(S(=O)(=O)c3ccc(F)cc3)C2)CC[C@H](C(=O)O)CC1`, in data set [1], the AUC is 16.6 µM·h. In addition, the EC50 in data set [2] is over 50 µM; in data set [5], over 7.5 µM; in [6], over 40 µM. The peak level in data set [3] (Cmax) was 3.7 µM. Further, the remaining at 10 min in data set [4] is 83%. For the same compound, the IC50 against Cytochrome P450 2B6 and against Cytochrome P450 2D6 was over 10 µM throughout. Further, the half-life in [7] was over 2 h.

On to `O=C(O)C12CCC(C(=O)N3CC[C@](c4ccc(C(F)(C(F)(F)F)C(F)(F)F)cc4)(S(=O)(=O)c4ccc(F)cc4)C3)(CC1)CC2`, for which, in [1], the AUC was found to be 24 µM·h. Moreover, the EC50 was over 50 µM in [2], over 7.5 µM in data set [5] and over 40 µM in data set [6]. The compound further came in with a Cmax in [3] of 6.7 µM. In addition, the remaining at 10 min in data set [4] amounted to 73%. Further, the IC50 against Cytochrome P450 2B6 and against Cytochrome P450 2D6 was over 10 µM each time. Further, the half-life in [7] was over 2 h.

For the origin of these results see ChEMBL document CHEMBL4387773, “Identification of potent, selective and orally bioavailable phenyl ((R)-3-phenylpyrrolidin-3-yl)sulfone analogues as RORγt inverse agonists” (Bioorg Med Chem Lett, 2019).
